# System: Egr-1 mRNA
# Assay: Nuclear run-on analysis of transcription in Balb/c 3T3 cells
# Assay type: cell-based, mouse
# Details: 0.5 µM
# Experimental: Nuclei were isolated from quiescent (0 h) and okadaic acid-treated (0.5 µM) Balb/c 3T3 cells under conditions described in the "Experimental Procedures" of Example 2. Nylon matrix containing the indicated plasmids were hybridized with the in vitro transcribed RNA and then autoradiographed. Control cells were also treated with DMEM containing […] of DMSO and RNA from these cells were also transcribed and hybridized to the various plasmids indicated.
# Cell Cultures and Reagents. Human diploid foreskin fibroblasts were a gift from Dr J Vilcek (New York University, New York). The cells were grown in MEM supplemented with 10% fetal bovine serum (Hyclone, Logan, UT, US), Mouse Balb/c 3T3 cells were purchased from the American Type Culture Collection and grown in Dulbecco's MEM (DMEM) supplemented with 10% fetal bovine serum. Okadaic acid, calyculin A, H7, and HA1004 were purchased from Biomol Research Laboratories (Plymouth Meeting, PA, US). TPA, puromycin and dBt-cAMP were purchased from Sigma (St Louis, MO, US) 1 mM stock solutions of okadaic acid or calyculin A were solubilized in DMSO. [³²P]orthophosphate and other radioactive chemicals were purchased from Du Pont-New England Nuclear (Boston, MA). Preparation of RNA and Northern Analysis. Balb/c 3T3 cells were grown to near confluency in DMEM supplemented with 10% fetal calf serum. The cells were then maintained in DMEM without serum for 48 h followed by treatment with the indicated agonists for the times indicated. Similarly human fibroblasts were maintained in MEM supplemented with 10% fetal bovine serum. Nearly confluent human fibroblasts were maintained for 2 days in MEM supplemented with 0.25% fetal bovine serum before treatment with agonists. The cells were harvested and total cytoplasmic RNA was isolated and subjected to Northern analysis as previously described (Chomczynski et al, Anal. Biochem. 162, 156-159, 1987). The blots were autoradiographed and quantitated with the aid of the Visage 2000 Image System (BioImage Products, Ann Arbor, MI, US). Nuclear Run-on Analysis of Transcription. […]
smiles,measurement,value
C=C1[C@@H](O)[C@@H]2O[C@]3(CC[C@H](/C=C/[C@@H](C)[C@@H]4CC(C)=C[C@@]5(O[C@H](C[C@@](C)(O)C(=O)O)CC[C@H]5O)O4)O3)CC[C@H]2O[C@@H]1[C@@H](O)C[C@H](C)[C@H]1O[C@@]2(CCCCO2)CC[C@H]1C [okadaic acid],time at which a trace of newly transcribed Egr-1 mRNA was detectable,0.5 h
same,time by which significant amounts of Egr-1 mRNA were transcribed,≤ 1 h
same,time of maximum transcription of Egr-1 mRNA,4 h

# Source: EP0551200A1, “Protein phosphatase inhibitors for use in therapy” (priority 1992, dated 1993)
